The values that follow come from PubChem BioAssay (NCI).

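Tested at 5 concentrations; 48 h exposure; 96-well plates; endpoints linearly interpolated, else capped at highest concentration. GI50 is the concentration that inhibits growth by half. TGI: total growth inhibition.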

Some test systems named below: SK-OV-3 ovarian; 786-0 renal; OVCAR-5 ovarian; RPMI-8226 leukemia; RXF 393 renal; BT-549 breast; CAKI-1 renal.
What all share (test): growth of human tumour cells (NCI), 48 h

Turning to `CCN(CC)CCCNC(=O)c1c2c(n3ccccc13)C(=O)c1ncccc1C2=O`, the GI50 with SK-OV-3 ovarian is 1.59 µM; in the assay on 786-0 renal, 0.904 µM; with OVCAR-5 ovarian, 1.18 µM; with RPMI-8226 leukemia it was 3.21 µM; with RXF 393 renal it was 1.16 µM; in the assay with BT-549 breast, 1.94 µM. Besides, the TGI with SK-OV-3 ovarian was 5.65 µM; in the assay on 786-0 renal it was 7.9 µM; in the assay on OVCAR-5 ovarian, 4.9 µM; with RPMI-8226 leukemia, above 100 µM; with RXF 393 renal it was 3.13 µM; with BT-549 breast, 4.06 µM.
For `COc1ccc(OC)c(-c2cc(-c3ccc(Cl)cc3)nn2-c2ccc(S(=O)(=O)NC(C)=O)cc2)c1`, the GI50 was 3.03 µM with 786-0 renal; 5.97 µM in the assay on OVCAR-5 ovarian; 4.75 µM in the assay with RPMI-8226 leukemia; 23.1 µM in the assay with RXF 393 renal; 4.26 µM in the assay on BT-549 breast; 37.6 µM in the assay on CAKI-1 renal. The TGI in the assay with 786-0 renal is 12.1 µM; with OVCAR-5 ovarian, 19.3 µM; in the assay on RPMI-8226 leukemia, 7.5 µM; with RXF 393 renal, above 100 µM; in the assay with BT-549 breast, 14.7 µM; with CAKI-1 renal, above 100 µM.
For the compound `CCN(CC)CCCC(C)N=C(C1=C(C(=NC(C)CCCN(CC)CC)c2cccc(OC)c2)C(=O)NC1=O)c1cccc(OC)c1` (centres undefined), the GI50 in the assay on SK-OV-3 ovarian is 2.98 µM; with 786-0 renal, 1.8 µM; in the assay with RPMI-8226 leukemia it was 1.23 µM; in the assay with RXF 393 renal, 1.11 µM; in the assay with BT-549 breast, 2.24 µM; with CAKI-1 renal, 1.66 µM. For the same compound, the TGI in the assay on SK-OV-3 ovarian is 13.1 µM; in the assay on 786-0 renal, 7.86 µM; in the assay with RPMI-8226 leukemia, 3.26 µM; in the assay with RXF 393 renal it was 4.15 µM; in the assay on BT-549 breast it was 8.44 µM; with CAKI-1 renal, 8.62 µM.
As to `C=C1CCC2C(C)(COC(=O)CC)C(OC(=O)CC)CCC2(C)C1C/C=C1/C(=O)OCC1OC(=O)CC` (centres undefined), the GI50 in the assay on SK-OV-3 ovarian was 3.85 µM; in the assay on 786-0 renal, 1.9 µM; in the assay on OVCAR-5 ovarian, 2.45 µM; in the assay with RPMI-8226 leukemia, 3.77 µM; in the assay on RXF 393 renal, 1.66 µM; in the assay with CAKI-1 renal, 1.65 µM. For the same compound, the TGI with SK-OV-3 ovarian was 9.74 µM; with 786-0 renal, 3.48 µM; in the assay on OVCAR-5 ovarian it was 5.35 µM; in the assay with RPMI-8226 leukemia, above 100 µM; in the assay on RXF 393 renal, 3.05 µM; with CAKI-1 renal, 3.37 µM.
For `Cc1cc(C)c(Cn2cnc3c(Cl)ncnc32)c(C)c1CCl`, the GI50 is 53.7 µM in the assay with SK-OV-3 ovarian; above 100 µM in the assay on 786-0 renal; above 100 µM in the assay with OVCAR-5 ovarian; 24.4 µM with RPMI-8226 leukemia; above 100 µM with RXF 393 renal; above 100 µM in the assay with BT-549 breast. Moreover, the TGI in the assay on SK-OV-3 ovarian, in the assay on 786-0 renal, in the assay on OVCAR-5 ovarian, in the assay with RPMI-8226 leukemia, in the assay on RXF 393 renal and in the assay with BT-549 breast was above 100 µM throughout.
For `SCCSCCCSCCS`, the TGI with SK-OV-3 ovarian, with 786-0 renal, with OVCAR-5 ovarian and in the assay on BT-549 breast was above 100 µM throughout.
`CCC(CNc1cc(OC)cc2cccnc12)NC1CCCCC1` (centres undefined): the GI50 in the assay on SK-OV-3 ovarian was above 100 µM; in the assay on 786-0 renal, 24 µM; with OVCAR-5 ovarian it was 61 µM; in the assay on RXF 393 renal, 71.2 µM; with CAKI-1 renal it was 21.9 µM. The TGI is above 100 µM in the assay on SK-OV-3 ovarian; 69.4 µM with 786-0 renal; above 100 µM in the assay with OVCAR-5 ovarian; above 100 µM with RXF 393 renal; above 100 µM in the assay with CAKI-1 renal.
As to `O=C(/C=C/c1ccccc1)n1c(-c2ccc(Cl)cc2)nc2ccccc21`, the GI50 in the assay on SK-OV-3 ovarian was 2.43 µM; in the assay on 786-0 renal it was 2.05 µM; in the assay on OVCAR-5 ovarian it was 1.74 µM; in the assay with RPMI-8226 leukemia it was 0.614 µM; in the assay on RXF 393 renal it was 1.32 µM; with BT-549 breast it was 1.67 µM. Besides, the TGI was found to be 5.71 µM in the assay with SK-OV-3 ovarian; 7.63 µM in the assay on 786-0 renal; 4.21 µM in the assay with OVCAR-5 ovarian; 3.82 µM with RPMI-8226 leukemia; 3.12 µM in the assay with RXF 393 renal; 3.22 µM in the assay with BT-549 breast.
On to `CCCCCCCCCCCCCCCCCC(=O)OCC(COC(=O)CCCN)OC(=O)CCCN` (centres undefined), for which the TGI in the assay with SK-OV-3 ovarian stood at 34.3 µM; in the assay with 786-0 renal it was 34.3 µM; in the assay with OVCAR-5 ovarian, 29.4 µM; in the assay on RXF 393 renal, 32.5 µM; with CAKI-1 renal it was 35.5 µM.
Take `COc1ccc2c(c1)CC[C@H](O)/C2=C/c1cc(OC)c(OC)c(OC)c1`: the GI50 in the assay on SK-OV-3 ovarian is 0.138 µM; in the assay with 786-0 renal it was 0.156 µM; with OVCAR-5 ovarian, 0.906 µM; in the assay with RPMI-8226 leukemia, 1.82 µM; in the assay on BT-549 breast it was 0.147 µM; in the assay with CAKI-1 renal it was 0.118 µM. The TGI in the assay with SK-OV-3 ovarian is above 100 µM; in the assay on 786-0 renal it was above 100 µM; in the assay on OVCAR-5 ovarian it was above 100 µM; with RPMI-8226 leukemia it was above 51.3 µM; in the assay on BT-549 breast it was 17.6 µM; in the assay with CAKI-1 renal, above 100 µM.
Consider `O=Cc1ccc(-c2ccc(-c3nc4ccccc4o3)cc2)o1`, for which the GI50 in the assay on SK-OV-3 ovarian was 41.9 µM; with 786-0 renal it was 24.4 µM; in the assay with OVCAR-5 ovarian, 29 µM; in the assay with RXF 393 renal, 22.6 µM; in the assay with BT-549 breast, 35.4 µM; in the assay with CAKI-1 renal, 22.6 µM. The TGI with SK-OV-3 ovarian is above 100 µM; in the assay with 786-0 renal it was 92.8 µM; in the assay with OVCAR-5 ovarian, 95.2 µM; in the assay on RXF 393 renal, 54.5 µM; in the assay with BT-549 breast it was above 100 µM; with CAKI-1 renal, 65.9 µM.
In the case of `COc1ccc2nc3cc([N+](=O)[O-])ccc3c(NCCCN(C)C)c2c1`, the GI50 in the assay with SK-OV-3 ovarian is 0.231 µM; in the assay with 786-0 renal it was 0.174 µM; with OVCAR-5 ovarian, 0.768 µM; in the assay with RPMI-8226 leukemia it was 0.038 µM; in the assay on BT-549 breast, 2.65 µM; with CAKI-1 renal, 1.24 µM. The TGI in the assay with SK-OV-3 ovarian amounted to 3.13 µM; with 786-0 renal, 1.28 µM; with OVCAR-5 ovarian, 4.51 µM; with RPMI-8226 leukemia, 0.437 µM; with BT-549 breast, 5.26 µM; with CAKI-1 renal, 3.83 µM.
On to `COc1ccc(OC)c2c1[nH]c(=O)c1c3ncccc3cn21`, for which the GI50 was 4.63 µM with SK-OV-3 ovarian; 5.44 µM in the assay on 786-0 renal; 6.78 µM with RPMI-8226 leukemia; 1.38 µM in the assay with RXF 393 renal; above 100 µM in the assay on BT-549 breast; 3.23 µM with CAKI-1 renal. For the same compound, the TGI in the assay on SK-OV-3 ovarian is above 100 µM; with 786-0 renal, above 100 µM; with RPMI-8226 leukemia, above 100 µM; in the assay on RXF 393 renal, 4.47 µM; in the assay on BT-549 breast it was above 100 µM; in the assay with CAKI-1 renal, above 100 µM.
